Measurements reported in PMC11721022, “Standardized Chromatographic and Computational Approaches for Lipophilicity Analysis of Five Gliflozin Antidiabetic Drugs in Relation to Their Biological Activity” (Molecules, 2024).

Columns and labels:
[1] = HPLC lipophilicity (log kW, standardized to log PEXP); type: physicochemical
Description: All experiments were performed using an HPLC system equipped with a solvent delivery pump 515 and a UV/VIS detector 2487 from Waters UK Sales (Elstree, UK), a degasser 964 from Jasco Inc. (Easton, MD, USA), and LiChrospher RP18, RP8 and CN columns (125 × 4.0 mm, 5 µm) from Merck. For RP18 and RP8 stationary phases, acetonitrile was used in the range of 35–60% and methanol in the range of 55–80%. For CN adsorbent, acetonitrile was used in the range 30–55% and methanol in the range 45–70%. For all chromatographic systems, a 5% step change in the concentration of the organic modifier was applied (Table S2 in Supplementary Files). The flow for each mobile phase and each chromatographic run was 1 mL/min while detection was performed at 260 nm. The analyzed drugs and six reference substances were dissolved in methanol to obtain concentrations of 0.1 mg/mL and injected into the column in the volume of 20 µL. All experiments were performed in triplicate with a constant temperature of 23 ± 0.5 °C.
(§1) In our study, six standards of known lipophilicity in the range of 0.62–3.5 were used. For each standard, the same chromatographic procedures were performed as for the analyzed drugs, obtaining their RF or tR values. Then, the RM, RMW, log k, and log kW values were calculated using Equations (1)–(3). In the next step, correlations between the chromatographically obtained RMW or log kW values for these six standards and their literary log P values were calculated and expressed as respective calibration equations (Table 1). In addition, using these calibration equations, the chromatographic systems were evaluated by calculating the log PEXP values for the standards. […] From these calibration equations, the experimental log PTLC and log PHPLC (log PEXP) for the examined drugs were determined, using their RMW and log kW values.

[2] = system: SGLT2; experiment: SGLT2 inhibition (literature); type: biochemical; settings: pIC50 (SGLT2, literature) minus mean log PEXP
[3] = parameters: method as in PMID 30151080, PMID 34586753; settings: cited from earlier work
[4] = Experimental lipophilicity from HPLC and TLC methods combined (standardization procedure); type: physicochemical; settings: mean over all HPLC and TLC systems
Description: as §1

[5] = parameters: method as in PMID 30151080, PMID 34586753; settings: cited from earlier work; remark: listed apart in the source
[6] = TLC lipophilicity (RMW, standardized to log PEXP); type: physicochemical
Description: Plates (10 × 10 cm, 0.25 mm) pre-coated with silica gel RP18F254, RP8F254 and CNF254 from Merck were used as the stationary phases. The tested drugs and six reference substances were dissolved in methanol to obtain working solutions at a concentration of 2 mg/mL. Volumes of 5 µL of these working solutions were spotted onto the plates which were then developed at a distance of 9 cm in the horizontal developing chambers (Chromdes, Lublin, Poland). The ranges for the organic modifier concentration in water varied depending on the type of stationary phase and the modifier used. For RP18 and RP8 systems, acetonitrile in the range 35–60% and methanol in the range 60–85% were used. For CN systems, acetonitrile was used in the range of 40–60% while methanol was used in the range of 45–65%. […] All experiments were performed in triplicate with a constant temperature of 23 ± 0.5 °C.
as §1

[7] = system: SGLT2; settings: Table 6; cited from earlier work
[8] = parameters: method as in earlier work; settings: established lipophilicity of standards; cited from earlier work
[9] = LiChrospher CN HPLC column (125 × 4.0 mm, 5 µm), HPLC.CN/ACN (CN column, acetonitrile modifier)
[10] = LiChrospher CN HPLC column (125 × 4.0 mm, 5 µm), HPLC.CN/MeOH (CN column, methanol modifier)
[11] = LiChrospher RP18 HPLC column (125 × 4.0 mm, 5 µm), HPLC.RP18/MeOH
[12] = LiChrospher RP8 HPLC column (125 × 4.0 mm, 5 µm), HPLC.RP8/ACN
[13] = LiChrospher RP18 HPLC column (125 × 4.0 mm, 5 µm), HPLC.RP18/ACN
[14] = HPLC.CN/MeOH (CN column, methanol modifier)
[15] = LiChrospher RP8 HPLC column (125 × 4.0 mm, 5 µm), HPLC.RP8/MeOH

chromatographic logP [1, 13]	SMILES	log PEXP ([1]; HPLC.RP8/MeOH)	chromatographic logP [1, 9]	chromatographic logP [1, 10]	chromatographic logP [1, 11]	LLE (lipophilic ligand efficiency) [2]	CL (apparent total clearance) [3] [L/h]	VD (apparent volume of distribution) [3] [L]	log PEXP (Mean ± SD) [4]	PB (protein-binding capacity) [5] [%]	chromatographic logP ([6]; TLC.CN/ACN)	chromatographic logP ([6]; TLC.CN/MeOH)	chromatographic logP ([6]; TLC.RP8/ACN)	chromatographic logP ([6]; TLC.RP8/MeOH)	chromatographic logP ([6]; TLC.RP18/ACN)	chromatographic logP ([6]; TLC.RP18/MeOH)	IC50 [7] [nM]	chromatographic logP [1, 12]	T0.5 (half-life) [3] [h]	further results
	Cc1ccc([C@@H]2O[C@H](CO)[C@@H](O)[C@H](O)[C@H]2O)cc1Cc1ccc(-c2ccc(F)cc2)s1 [CANA, canagliflozin]	4.43	3.73	4.91	4.55	4.67	11.52	83.5	3.99 ± 0.91	99	2.4	5.86	3.55	4.07	3.47	4.43	2.2			log PEXP ([1]; HPLC.RP8/ACN): 3.23; log PEXP ([1]; HPLC.RP18/ACN): 3.28
2	CCOc1ccc(Cc2cc([C@@H]3O[C@H](CO)[C@@H](O)[C@H](O)[C@H]3O)ccc2Cl)cc1 [DAPA, dapagliflozin]	3.20		3.08	3.27	6.12	12.42	118	2.83 ± 0.78	91	2.03	4.72	2.3		2.22	3.58		2.11		log PEXP ([1]; HPLC.CN/ACN (CN column, acetonitrile modifier)): 2.34; log PEXP ([6]; TLC.RP8/MeOH): 3.14
1.35	OC[C@H]1O[C@@H](c2ccc(Cl)c(Cc3ccc(O[C@H]4CCOC4)cc3)c2)[C@H](O)[C@@H](O)[C@@H]1O [EMPA, empagliflozin]		2.3		2.85	6.23	10.6	73.8	2.28 ± 0.73	86	1.87	3.51	1.68	2.48		2.99			12.4	log PEXP [1, 14]: 2.66; log PEXP ([1]; HPLC.RP8/ACN): 1.70; chromatographic logP [1, 15]: 2.78; log PEXP ([6]; TLC.RP18/ACN): 1.30
	CCOc1ccc(Cc2cc([C@]34OC[C@](CO)(O3)[C@@H](O)[C@H](O)[C@H]4O)ccc2Cl)cc1 [ERTU, ertugliflozin]		2.49	3.36	3.59	6.02	10.68	85.5	3.04 ± 0.61	94	2.01	3.97		3.54	3.13	3.27	0.87	2.4	11	log PEXP ([1]; HPLC.RP18/ACN): 2.22; chromatographic logP [1, 15]: 3.49; log PEXP ([6]; TLC.RP8/ACN): 2.99
	Nc1ccccc1O [S1, 2-aminophenol]																			log P [8]: 0.62
	c1ccc(Nc2ccccc2)cc1 [S6, diphenylamine]																			log P [8]: 3.5

SMILES	chromatographic logP [1, 13]	log PEXP ([1]; HPLC.RP8/MeOH)	chromatographic logP [1, 9]	chromatographic logP [1, 10]	chromatographic logP [1, 11]	LLE (lipophilic ligand efficiency) [2]	CL (apparent total clearance) [3] [L/h]	VD (apparent volume of distribution) [3] [L]	log PEXP (Mean ± SD) [4]	PB (protein-binding capacity) [5] [%]	chromatographic logP ([6]; TLC.CN/ACN)	chromatographic logP ([6]; TLC.CN/MeOH)	chromatographic logP ([6]; TLC.RP8/ACN)	chromatographic logP ([6]; TLC.RP8/MeOH)	chromatographic logP ([6]; TLC.RP18/ACN)	chromatographic logP ([6]; TLC.RP18/MeOH)	IC50 [7] [nM]	chromatographic logP [1, 12]	T0.5 (half-life) [3] [h]	further results
CCOc1ccc(Cc2cc([C@@H]3O[C@H](SC)[C@@H](O)[C@H](O)[C@H]3O)ccc2Cl)cc1 [SOTA, sotagliflozin]	3.4	4.43	3.59			4.8	261	9392	3.94 ± 0.67	98	2.32	4.61	4.08	4.26	3.69	4.5	1.8	3.28	21	log PEXP [1, 14]: 4.57; log PEXP ([1]; HPLC.RP18/MeOH): 4.50
